Test results reported in US11713338B2, “Cyclic peptides multimers targeting α-4-β-7 integrin” (priority 2016, dated 2023).

What was measured:
[1] = molecular target: T1, integrin α4β7 (RPMI8866 human cells adhering to MAdCAM-1) (Homo sapiens, UniProt P13612+P26010); experiment: Integrin α4β7-MAdCAM cell adhesion assay (RPMI8866 cells); format: cell-based; settings: RPMI8866 cells adhering to MAdCAM; read-out: RPMI8866 Adhesion α4β7/MAdCAM IC50
T1 construct: RMP18866 cells, which express integrin α4β7; host or cells: RPMI8866
T1 sequence (P13612 34-1032): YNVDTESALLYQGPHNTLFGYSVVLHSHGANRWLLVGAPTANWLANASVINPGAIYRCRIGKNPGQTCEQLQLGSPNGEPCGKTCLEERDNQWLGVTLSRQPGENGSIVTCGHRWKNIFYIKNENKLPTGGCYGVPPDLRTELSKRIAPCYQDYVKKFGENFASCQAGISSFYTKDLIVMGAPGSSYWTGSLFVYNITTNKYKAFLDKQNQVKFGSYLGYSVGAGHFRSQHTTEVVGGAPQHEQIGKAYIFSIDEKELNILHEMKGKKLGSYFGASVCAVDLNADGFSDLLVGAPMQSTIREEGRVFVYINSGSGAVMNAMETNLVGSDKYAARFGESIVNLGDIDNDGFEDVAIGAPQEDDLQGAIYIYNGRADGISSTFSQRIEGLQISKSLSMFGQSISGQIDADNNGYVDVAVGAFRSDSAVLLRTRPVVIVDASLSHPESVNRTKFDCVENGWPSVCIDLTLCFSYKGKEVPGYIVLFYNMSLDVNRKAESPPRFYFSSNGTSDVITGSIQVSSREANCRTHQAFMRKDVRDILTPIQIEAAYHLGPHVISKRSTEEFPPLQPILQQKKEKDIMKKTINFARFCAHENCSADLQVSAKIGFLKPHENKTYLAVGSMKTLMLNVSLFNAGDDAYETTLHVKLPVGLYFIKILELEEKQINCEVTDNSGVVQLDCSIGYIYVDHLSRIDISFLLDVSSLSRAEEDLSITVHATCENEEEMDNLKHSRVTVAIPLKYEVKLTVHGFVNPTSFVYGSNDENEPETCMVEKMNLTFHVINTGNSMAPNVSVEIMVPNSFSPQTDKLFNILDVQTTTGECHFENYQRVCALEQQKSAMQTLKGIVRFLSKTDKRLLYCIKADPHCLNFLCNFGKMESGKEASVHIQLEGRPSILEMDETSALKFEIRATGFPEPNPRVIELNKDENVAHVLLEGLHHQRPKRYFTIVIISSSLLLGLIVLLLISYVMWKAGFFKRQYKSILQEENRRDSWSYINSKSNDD
T1 sequence (P26010 20-798): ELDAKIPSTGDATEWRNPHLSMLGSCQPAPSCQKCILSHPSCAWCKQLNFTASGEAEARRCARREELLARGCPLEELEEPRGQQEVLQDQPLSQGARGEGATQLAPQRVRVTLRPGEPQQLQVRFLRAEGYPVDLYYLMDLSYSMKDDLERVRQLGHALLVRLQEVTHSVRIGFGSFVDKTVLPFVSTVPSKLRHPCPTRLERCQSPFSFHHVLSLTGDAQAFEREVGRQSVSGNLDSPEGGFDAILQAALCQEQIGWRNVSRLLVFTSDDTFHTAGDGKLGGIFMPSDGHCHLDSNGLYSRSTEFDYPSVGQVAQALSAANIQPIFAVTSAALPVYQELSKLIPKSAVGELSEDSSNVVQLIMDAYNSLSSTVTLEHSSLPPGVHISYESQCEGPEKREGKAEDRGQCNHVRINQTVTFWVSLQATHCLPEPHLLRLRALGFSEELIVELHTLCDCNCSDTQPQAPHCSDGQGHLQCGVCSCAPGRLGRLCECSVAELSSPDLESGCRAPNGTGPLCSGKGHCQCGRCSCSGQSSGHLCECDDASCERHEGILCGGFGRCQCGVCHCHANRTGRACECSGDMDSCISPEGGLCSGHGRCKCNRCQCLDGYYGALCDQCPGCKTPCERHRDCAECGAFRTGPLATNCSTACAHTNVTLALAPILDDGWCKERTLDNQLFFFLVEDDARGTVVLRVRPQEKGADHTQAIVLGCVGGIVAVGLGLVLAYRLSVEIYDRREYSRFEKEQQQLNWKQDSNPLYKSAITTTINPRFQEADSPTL
Method: Integrin α4β7-MAdCAM Cell Adhesion Assay
RPMI8866 cells were resuspended at 10 million cells/ml in PBS containing […] and incubated at 37° C. for 30 min in a 50 ml tube. […] The plate was emptied by inverting and blotting on paper towels and washed manually twice with PBS. 100 μl PBS was then added to each well. […] To calculate the dose response, the fluorescence value of control wells not containing cells was subtracted from each test well.

[2] = molecular target: T2, recombinant integrin α4β7 (Homo sapiens, UniProt P13612+P26010, DEL724-798); experiment: Integrin α4β7—MAdCAM-1 ELISA competition assay; format: binding
T2 construct: purchased R&D Systems 5397-A3-050
T2 sequence (P13612 34-970 limits assumed): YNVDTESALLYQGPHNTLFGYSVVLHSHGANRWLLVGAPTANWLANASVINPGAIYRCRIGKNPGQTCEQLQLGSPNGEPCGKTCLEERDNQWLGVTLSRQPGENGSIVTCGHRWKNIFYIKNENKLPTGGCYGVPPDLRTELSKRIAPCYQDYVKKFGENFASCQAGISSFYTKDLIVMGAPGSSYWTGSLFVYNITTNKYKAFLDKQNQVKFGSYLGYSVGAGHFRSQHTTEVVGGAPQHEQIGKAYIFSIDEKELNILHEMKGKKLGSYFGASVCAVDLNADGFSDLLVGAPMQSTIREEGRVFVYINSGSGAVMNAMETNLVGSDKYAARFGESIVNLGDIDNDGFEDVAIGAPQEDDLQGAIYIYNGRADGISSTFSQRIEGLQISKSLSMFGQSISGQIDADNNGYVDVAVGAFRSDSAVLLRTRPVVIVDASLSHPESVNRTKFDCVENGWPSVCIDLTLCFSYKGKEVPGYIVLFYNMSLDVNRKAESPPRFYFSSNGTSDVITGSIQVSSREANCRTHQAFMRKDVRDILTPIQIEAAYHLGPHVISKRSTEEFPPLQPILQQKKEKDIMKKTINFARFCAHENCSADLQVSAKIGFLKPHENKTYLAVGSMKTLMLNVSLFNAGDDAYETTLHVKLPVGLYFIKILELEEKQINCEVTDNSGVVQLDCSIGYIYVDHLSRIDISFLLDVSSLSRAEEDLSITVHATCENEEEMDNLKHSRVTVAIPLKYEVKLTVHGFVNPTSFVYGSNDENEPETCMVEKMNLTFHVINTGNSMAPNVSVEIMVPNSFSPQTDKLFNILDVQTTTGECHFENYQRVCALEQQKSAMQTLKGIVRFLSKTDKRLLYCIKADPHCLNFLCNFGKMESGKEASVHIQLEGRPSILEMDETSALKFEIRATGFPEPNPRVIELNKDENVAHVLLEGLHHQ
T2 sequence (P26010 20-723 limits assumed): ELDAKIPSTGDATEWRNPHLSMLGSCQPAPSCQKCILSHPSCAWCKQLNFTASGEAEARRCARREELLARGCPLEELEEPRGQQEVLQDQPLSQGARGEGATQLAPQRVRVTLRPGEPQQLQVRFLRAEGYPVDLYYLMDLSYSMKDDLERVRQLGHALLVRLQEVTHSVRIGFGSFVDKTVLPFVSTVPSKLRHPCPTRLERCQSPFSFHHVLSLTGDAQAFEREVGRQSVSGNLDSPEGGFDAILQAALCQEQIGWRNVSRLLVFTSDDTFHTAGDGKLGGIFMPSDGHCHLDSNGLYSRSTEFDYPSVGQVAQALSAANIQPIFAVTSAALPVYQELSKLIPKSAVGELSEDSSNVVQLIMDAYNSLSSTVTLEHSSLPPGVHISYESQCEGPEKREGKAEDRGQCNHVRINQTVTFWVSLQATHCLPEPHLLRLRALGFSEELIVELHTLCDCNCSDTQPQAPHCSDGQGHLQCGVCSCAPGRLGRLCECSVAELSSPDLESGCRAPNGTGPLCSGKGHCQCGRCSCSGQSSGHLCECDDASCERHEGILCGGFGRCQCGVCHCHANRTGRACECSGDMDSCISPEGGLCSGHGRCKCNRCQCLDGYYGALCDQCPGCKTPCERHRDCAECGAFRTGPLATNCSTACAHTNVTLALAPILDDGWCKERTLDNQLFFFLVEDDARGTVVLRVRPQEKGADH

[3] = molecular target: T3, recombinant integrin α4β1 (Homo sapiens, UniProt P05556+P13612); experiment: Integrin α4β1—VCAM-1 competition ELISA; format: binding; settings: read-out: ELISA a4b1 Assay IC50
T3 construct: purchased R&D Systems 5397-A3-050
T3 sequence (P05556 21-728 limits assumed, one chain of several): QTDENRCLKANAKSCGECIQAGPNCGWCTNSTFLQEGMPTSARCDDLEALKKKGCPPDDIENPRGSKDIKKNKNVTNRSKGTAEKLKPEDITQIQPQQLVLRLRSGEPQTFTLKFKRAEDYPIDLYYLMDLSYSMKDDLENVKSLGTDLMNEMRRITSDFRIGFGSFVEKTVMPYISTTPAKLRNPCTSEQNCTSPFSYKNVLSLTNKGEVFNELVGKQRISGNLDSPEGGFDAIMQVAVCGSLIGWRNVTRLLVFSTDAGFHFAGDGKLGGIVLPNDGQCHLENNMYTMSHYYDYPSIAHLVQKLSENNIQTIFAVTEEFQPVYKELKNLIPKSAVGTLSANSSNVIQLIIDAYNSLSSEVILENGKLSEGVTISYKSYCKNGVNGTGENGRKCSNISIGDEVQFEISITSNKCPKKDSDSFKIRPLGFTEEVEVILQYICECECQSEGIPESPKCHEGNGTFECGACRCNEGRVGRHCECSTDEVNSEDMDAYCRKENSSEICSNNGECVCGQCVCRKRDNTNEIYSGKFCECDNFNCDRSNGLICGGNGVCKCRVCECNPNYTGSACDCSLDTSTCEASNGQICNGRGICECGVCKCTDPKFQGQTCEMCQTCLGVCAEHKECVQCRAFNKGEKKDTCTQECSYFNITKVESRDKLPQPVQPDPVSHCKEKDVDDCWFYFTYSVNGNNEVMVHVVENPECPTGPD
Summary of the method: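 Compound dilutions added to coated plate and shaken at room temperature for 2 h (300 rpm) to binding equilibrium. Wash buffer: 50 mM Tris, 100 mM NaCl, 1 mM MnCl2, 0.05% Tween. Bound Fc-tagged ligand detected with anti-human IgG Fc-HRP, 1 h at room temperature.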

SMILES | IC50 [1] [nM] | other results
CC(C)C[C@@H]1NC(=O)c2ccc(-c3ccc(N4CCN(C(=O)COCCOCCOCC(=O)N5CCN(c6ccc(-c7ccc8cc7CNC(=O)[C@@H]7CCCN7[C@H](C(=O)NC(C)(C)C)[C@H](C)NC(=O)[C@H]([C@@H](C)O)NC(=O)[C@H](CC(=O)O)NC(=O)[C@H](CC(C)C)NC8=O)cc6)CC5)CC4)cc3)c(c2)CNC(=O)[C@@H]2CCCN2[C@H](C(=O)NC(C)(C)C)[C@H](C)NC(=O)[C@H]([C@@H](C)O)NC(=O)[C@H](CC(=O)O)NC1=O [Compound 508] | 46 | 
CC(C)C[C@@H]1NC(=O)c2ccc(-c3ccc(N4CCN(C(=O)Cc5ccc(CC(=O)N6CCN(c7ccc(-c8ccc9cc8CNC(=O)[C@@H]8CCCN8[C@H](C(=O)NC(C)(C)C)[C@H](C)NC(=O)[C@H]([C@@H](C)O)NC(=O)[C@H](CC(=O)O)NC(=O)[C@H](CC(C)C)NC9=O)cc7)CC6)cc5)CC4)cc3)c(c2)CNC(=O)[C@@H]2CCCN2[C@H](C(=O)NC(C)(C)C)[C@H](C)NC(=O)[C@H]([C@@H](C)O)NC(=O)[C@H](CC(=O)O)NC1=O [Compound 516] | 98 | 
CC(C)C[C@@H]1NC(=O)c2ccc(-c3ccc(N4CCN(C(=O)CC[C@@H](N)C(=O)N5CCN(c6ccc(-c7ccc8cc7CNC(=O)[C@@H]7CCCN7[C@H](C(=O)NC(C)(C)C)[C@H](C)NC(=O)[C@H]([C@@H](C)O)NC(=O)[C@H](CC(=O)O)NC(=O)[C@H](CC(C)C)NC8=O)cc6)CC5)CC4)cc3)c(c2)CNC(=O)[C@@H]2CCCN2[C@H](C(=O)NC(C)(C)C)[C@H](C)NC(=O)[C@H]([C@@H](C)O)NC(=O)[C@H](CC(=O)O)NC1=O [Compound 495] | 30 | 
CC(C)C[C@@H]1NC(=O)c2ccc(-c3ccc(N4CCN(C(=O)c5cccc(C(=O)N6CCN(c7ccc(-c8ccc9cc8CNC(=O)[C@@H]8CCCN8[C@H](C(=O)NC(C)(C)C)[C@H](C)NC(=O)[C@H]([C@@H](C)O)NC(=O)[C@H](CC(=O)O)NC(=O)[C@H](CC(C)C)NC9=O)cc7)CC6)c5)CC4)cc3)c(c2)CNC(=O)[C@@H]2CCCN2[C@H](C(=O)NC(C)(C)C)[C@H](C)NC(=O)[C@H]([C@@H](C)O)NC(=O)[C@H](CC(=O)O)NC1=O [Compound 497] | 25 | 
CC(C)C[C@@H]1NC(=O)[C@H]2CCCCN2C(=O)[C@H](Cc2ccc(CNC(=O)CCCCCC(=O)NCc3ccc(C[C@@H]4NC(=O)[C@@H]5CCCN5[C@H](C(=O)NC(C)(C)C)[C@H](C)NC(=O)[C@H]([C@@H](C)O)NC(=O)[C@H](CC(=O)O)NC(=O)[C@H](CC(C)C)NC(=O)[C@H]5CCCCN5C4=O)cc3)cc2)NC(=O)[C@@H]2CCCN2[C@H](C(=O)NC(C)(C)C)[C@H](C)NC(=O)[C@H]([C@@H](C)O)NC(=O)[C@H](CC(=O)O)NC1=O [Compound 524] | 447 | 
CC(C)C[C@@H]1NC(=O)c2ccc(-c3ccc(N4CCN(C(=O)CCOCCOCCOCCOCCOCCOCCOCCOCCOCCOCCOCCOCCOCCC(=O)N5CCN(c6ccc(-c7ccc8cc7CNC(=O)[C@@H]7CCCN7[C@H](C(=O)NC(C)(C)C)[C@H](C)NC(=O)[C@H]([C@@H](C)O)NC(=O)[C@H](CC(=O)O)NC(=O)[C@H](CC(C)C)NC8=O)cc6)CC5)CC4)cc3)c(c2)CNC(=O)[C@@H]2CCCN2[C@H](C(=O)NC(C)(C)C)[C@H](C)NC(=O)[C@H]([C@@H](C)O)NC(=O)[C@H](CC(=O)O)NC1=O [Compound 504] | 42 | 
CC(C)C[C@@H]1NC(=O)c2ccc(-c3ccc(N4CCN(C(=O)CCOCCOCCOCCOCCOCCOCCOCCC(=O)N5CCN(c6ccc(-c7ccc8cc7CNC(=O)[C@@H]7CCCN7[C@H](C(=O)NC(C)(C)C)[C@H](C)NC(=O)[C@H]([C@@H](C)O)NC(=O)[C@H](CC(=O)O)NC(=O)[C@H](CC(C)C)NC8=O)cc6)CC5)CC4)cc3)c(c2)CNC(=O)[C@@H]2CCCN2[C@H](C(=O)NC(C)(C)C)[C@H](C)NC(=O)[C@H]([C@@H](C)O)NC(=O)[C@H](CC(=O)O)NC1=O [Compound 510] | 87 | 
CC(C)C[C@@H]1NC(=O)[C@@H](CCCNC(=N)N)N(C)C(=O)[C@H](Cc2ccc(O)cc2)NC(=O)[C@@H]2CCCN2[C@H](C(=O)NC(C)(C)C)[C@H](C)NC(=O)[C@H]([C@@H](C)O)NC(=O)[C@H](CC(=O)O)NC1=O [Compound 157] |  | ELISA Assay Ratio b1/b7 ([2]; ratio of a4b1 to a4b7 ELISA IC50): 55.3; IC50 ([2]; read-out: ELISA a4b7 Assay IC50): 67 nM; IC50 [3]: 3710 nM
